Experimental data from patent publication US20170334899A1, “AMINO-SUBSTITUTED ISOTHIAZOLES” (Bayer Pharma Aktiengesellschaft, priority 2014, published 2017).
“And” between values parts separate entries of the source, which are not always exact repeats. Equal entries are not always repeated.

Key:
[1] = system: human cervical tumor cell line HeLa (ATCC CCL-2); assay: SAC-Formation - Paclitaxel-Induced Assay; format: cell-based; conditions: Homo sapiens, HeLa, 24 h, HeLa cells, paclitaxel 0.05 μM, test range 0.005 μM-20 μM, read-out: IC50 [mol/l] SAC-Formation - Paclitaxel-Induced Assay
Summary of the method: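 Read-out is high-content imaging of anti-phospho-H3 Ser10 (mitosis) and Hoechst 33342 (DNA, cell number), with decreased mitotic fraction marking checkpoint breakthrough. Compounds (0.005–20 μM) and 0.05 μM paclitaxel co-added to overnight-plated HeLa for 24 h at 37° C; four-parameter Hill fit.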

[2] = target: T1, catalytic domain of human Bub1 (amino acids 704-1085) (Homo sapiens, UniProt O43683); assay: Bub1 kinase assay (TR-FRET); format: biochemical; conditions: 10 μM ATP, avg, read-out: Bub1 avg (IC50 [mol/l])
T1 construct: catalytic domain of human Bub1 (amino acids 704-1085); His6 (N); made in house; host or cells: insect cells (Hi5)
Source text: Bub1-inhibitory activity of compounds of the present invention was quantified employing the Bub1 TR-FRET assay as described in the following paragraphs.
N-terminally His6-tagged recombinant catalytic domain of human Bub1 (amino acids 704-1085), expressed in insect cells (Hi5) and purified by Ni-NTA affinity chromatography and subsequent size exclusion chromatography, was used as enzyme. As substrate for the kinase reaction the biotinylated peptide biotin-Ahx-VLLPKKSFAEPG (C-terminus in amid form) was used which can be purchased e.g. form the company Biosyntan (Berlin, Germany).
For the assay 50 nl of a 100fold concentrated solution of the test compound in DMSO was pipetted into a black low volume 384well microtiter plate (Greiner Bio-One, Frickenhausen, Germany), 2 μl of a solution of Bub1 in aqueous assay buffer [50 mM Tris/HCl pH 7.5, 10 mM magnesium chloride (MgCl2), 200 mM potassium chloride (KCl), 1.0 mM dithiothreitol (DTT), 0.1 mM sodium ortho-vanadate, 1% (v/v) glycerol, 0.01% (w/v) bovine serum albumine (BSA), 0.005% (v/v) Trition X-100 (Sigma), 1× Complete EDTA-free protease inhibitor mixture (Roche)] were added and the mixture was incubated for 15 min at 22° C. to allow pre-binding of the test compounds to the enzyme before the start of the kinase reaction. Then the kinase reaction was started by the addition of 3 μl of a solution of adenosine-tri-phosphate (ATP, 16.7 μM=>final conc. in the 5 μl assay volume is 10 μM) and substrate (1.67 μM=>final conc. in the 5 μl assay volume is 1 μM) in assay buffer and the resulting mixture was incubated for a reaction time of 60 min at 22° C. The concentration of Bub1 was adjusted depending of the activity of the enzyme lot and was chosen appropriate to have the assay in the linear range, typical concentrations were in the range of 200 ng/ml. The reaction was stopped by the addition of 5 μl of a solution of TR-FRET detection reagents (0.2 μM streptavidine-XL665 [Cisbio Bioassays, Codolet, France] and 1 nM anti-phosho-Serine antibody [Merck Millipore, cat. #35-001] and 0.4 nM LANCE EU-W1024 labeled anti-mouse IgG antibody [Perkin-Elmer, product no. AD0077, as an alternative a Terbium-cryptate-labeled anti-mouse IgG antibody from Cisbio Bioassays can be used]) in an aqueous EDTA-solution (50 mM EDTA, 0.2% (w/v) bovine serum albumin in 100 mM HEPES pH 7.5).
The resulting mixture was incubated 1 h at 22° C. to allow the formation of complex between the phosphorylated biotinylated peptide and the detection reagents. Subsequently the amount of phosphorylated substrate was evaluated by measurement of the resonance energy transfer from the Eu-chelate to the streptavidine-XL. Therefore, the fluorescence emissions at 620 nm and 665 nm after excitation at 350 nm was measured in a TR-FRET reader, e.g. a Rubystar or Pherastar (both from BMG Labtechnologies, Offenburg, Germany) or a Viewlux (Perkin-Elmer). The ratio of the emissions at 665 nm and at […] was taken as the measure for the amount of phosphorylated substrate. The data were normalised (enzyme reaction without inhibitor=0% inhibition, all other assay components but no enzyme=100% inhibition).

T1 sequence (O43683 704-1085): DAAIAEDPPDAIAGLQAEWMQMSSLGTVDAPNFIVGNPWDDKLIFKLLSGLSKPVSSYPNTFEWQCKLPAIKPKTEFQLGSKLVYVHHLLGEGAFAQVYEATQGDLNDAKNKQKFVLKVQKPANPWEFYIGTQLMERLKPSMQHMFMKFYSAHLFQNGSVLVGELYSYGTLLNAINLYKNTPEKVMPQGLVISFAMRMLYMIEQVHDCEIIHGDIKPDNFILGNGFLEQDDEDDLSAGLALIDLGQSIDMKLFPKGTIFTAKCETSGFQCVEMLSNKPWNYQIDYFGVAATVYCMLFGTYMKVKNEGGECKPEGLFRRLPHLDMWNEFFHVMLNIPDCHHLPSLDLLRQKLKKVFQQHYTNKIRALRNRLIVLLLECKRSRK

| Structure (SMILES) | IC50 [1] | IC50 [2] |
| --- | --- | --- |
| Cc1nsc(Nc2cnc(C(F)(F)F)cn2)c1C(=O)Nc1ccc(O[C@@H]2CCN(CC(F)F)C[C@@H]2F)nc1 [Example 137, N-(6-{[(3S,4R)-1-(2,2-difluoroethyl)-3-fluoropiperidin-4-yl]oxy}pyridin-3-yl)-3-methyl-5-{[5-(trifluoromethyl)pyrazin-2-yl]amino}-1,2-thiazole-4-carboxamide] | 0.032 µM | > 20 µM |
| Cc1nsc(Nc2cnc(C(F)(F)F)cn2)c1C(=O)Nc1ccc(O[C@@H]2CCN(CC(F)(F)F)C[C@@H]2F)nc1 [Example 138, N-(6-{[(3S,4R)-3-fluoro-1-(2,2,2-trifluoroethyl)piperidin-4-yl]oxy}pyridin-3-yl)-3-methyl-5-{[5-(trifluoromethyl)pyrazin-2-yl]amino}-1,2-thiazole-4-carboxamide] | 0.17 µM | > 20 µM |
| Cc1nsc(Nc2cnc(C(F)(F)F)cn2)c1C(=O)Nc1ccc(O[C@@H]2CCN(CCC(F)(F)F)C[C@@H]2F)nc1 [Example 139, N-(6-{[(3S,4R)-3-fluoro-1-(3,3,3-trifluoropropyl)piperidin-4-yl]oxy}pyridin-3-yl)-3-methyl-5-{[5-(trifluoromethyl)pyrazin-2-yl]amino}-1,2-thiazole-4-carboxamide] | 0.089 µM | > 20 µM |
| CCCN1CC[C@@H](Oc2ccc(NC(=O)c3c(C)nsc3Nc3cnc(C(F)(F)F)cn3)cn2)[C@@H](F)C1 [Example 140, N-(6-{[(3S,4R)-3-fluoro-1-propylpiperidin-4-yl]oxy}pyridin-3-yl)-3-methyl-5-{[5-(trifluoromethyl)pyrazin-2-yl]amino}-1,2-thiazole-4-carboxamide] | 0.11 µM | > 20 µM |
| CCCCN1CC[C@@H](Oc2ccc(NC(=O)c3c(C)nsc3Nc3cnc(C(F)(F)F)cn3)cn2)[C@@H](F)C1 [Example 141, N-(6-{[(3S,4R)-1-butyl-3-fluoropiperidin-4-yl]oxy}pyridin-3-yl)-3-methyl-5-{[5-(trifluoromethyl)pyrazin-2-yl]amino}-1,2-thiazole-4-carboxamide] | 0.12 µM | ≥ 20 µM |
| Cc1nsc(Nc2cnc(C(F)(F)F)cn2)c1C(=O)Nc1ccc(O[C@H]2CCN(CC(F)F)C[C@H]2F)nc1 [Example 144, N-(6-{[(3R,4S)-1-(2,2-difluoroethyl)-3-fluoropiperidin-4-yl]oxy}pyridin-3-yl)-3-methyl-5-{[5-(trifluoromethyl)pyrazin-2-yl]amino}-1,2-thiazole-4-carboxamide] | 0.094 µM | > 20 µM |
| Cc1nsc(Nc2cnc(C(F)(F)F)cn2)c1C(=O)Nc1ccc(O[C@H]2CCN(CC(F)(F)F)C[C@H]2F)nc1 [Example 145, N-(6-{[(3R,4S)-3-fluoro-1-(2,2,2-trifluoroethyl)piperidin-4-yl]oxy}pyridin-3-yl)-3-methyl-5-{[5-(trifluoromethyl)pyrazin-2-yl]amino}-1,2-thiazole-4-carboxamide] | 0.037 µM | > 20 µM |
| Cc1nsc(Nc2cnc(C(F)(F)F)cn2)c1C(=O)Nc1ccc(O[C@H]2CCN(CCC(F)(F)F)C[C@H]2F)nc1 [Example 146, N-(6-{[(3R,4S)-3-fluoro-1-(3,3,3-trifluoropropyl)piperidin-4-yl]oxy}pyridin-3-yl)-3-methyl-5-{[5-(trifluoromethyl)pyrazin-2-yl]amino}-1,2-thiazole-4-carboxamide] | 0.11 µM | > 20 µM |
| CCCN1CC[C@H](Oc2ccc(NC(=O)c3c(C)nsc3Nc3cnc(C(F)(F)F)cn3)cn2)[C@H](F)C1 [Example 147, N-(6-{[(3R,4S)-3-fluoro-1-propylpiperidin-4-yl]oxy}pyridin-3-yl)-3-methyl-5-{[5-(trifluoromethyl)pyrazin-2-yl]amino}-1,2-thiazole-4-carboxamide] | 0.03 µM | > 20 µM |
| CCCCN1CC[C@H](Oc2ccc(NC(=O)c3c(C)nsc3Nc3cnc(C(F)(F)F)cn3)cn2)[C@H](F)C1 [Example 148, N-(6-{[(3R,4S)-1-butyl-3-fluoropiperidin-4-yl]oxy}pyridin-3-yl)-3-methyl-5-{[5-(trifluoromethyl)pyrazin-2-yl]amino}-1,2-thiazole-4-carboxamide] | 0.31 µM | > 20 µM |
| Cc1nsc(Nc2cnc3cc(F)ccc3n2)c1C(=O)Nc1ccc(S(N)(=O)=O)cc1 [Example 149, 5-[(6-fluoroquinoxalin-2-yl)amino]-3-methyl-N-(4-sulfamoylphenyl)-1,2-thiazole-4-carboxamide] | 1.6 µM | > 20 µM |
| Cc1nsc(Nc2ccc(C#N)cn2)c1C(=O)Nc1cccc(S(C)(=O)=O)c1 [Example 150, 5-[(5-cyanopyridin-2-yl)amino]-3-methyl-N-[3-(methylsulfonyl)phenyl]-1,2-thiazole-4-carboxamide] | 0.25 µM | > 20 µM |
| Cc1nsc(Nc2cnc(C(F)(F)F)cn2)c1C(=O)Nc1ccc(F)c(C(N)=O)c1 [Example 151, N-(3-carbamoyl-4-fluorophenyl)-3-methyl-5-{[5-(trifluoromethyl)pyrazin-2-yl]amino}-1,2-thiazole-4-carboxamide] | 1.3 µM | 4.3 µM |
| CC(=O)Nc1cc(NC(=O)c2c(C)nsc2Nc2ccc(C#N)cn2)ccc1F [Example 152, N-(3-acetamido-4-fluorophenyl)-5-[(5-cyanopyridin-2-yl)amino]-3-methyl-1,2-thiazole-4-carboxamide] | 8.8 µM | > 20 µM |
| Cc1nsc(Nc2cnc(C(F)(F)F)cn2)c1C(=O)Nc1ccc(C(=O)NCCN2CCCC(F)(F)C2)cc1 [Example 153, N-(4-{[2-(3,3-difluoropiperidin-1-yl)ethyl]carbamoyl}phenyl)-3-methyl-5-{[5-(trifluoromethyl)pyrazin-2-yl]amino}-1,2-thiazole-4-carboxamide] | 0.37 µM | 14 µM |
| Cc1nsc(Nc2cnc(C(F)(F)F)cn2)c1C(=O)Nc1ccc(C(=O)N2CCN(CC(F)F)CC2)cc1 [Example 154, N-(4-{[4-(2,2-difluoroethyl)piperazin-1-yl]carbonyl}phenyl)-3-methyl-5-{[5-(trifluoromethyl)pyrazin-2-yl]amino}-1,2-thiazole-4-carboxamide] | 1.2 µM | > 20 µM |
| Cc1nsc(Nc2cncc(C(F)(F)F)n2)c1C(=O)Nc1ccc(C(=O)NCCN2CCCC(F)C2)cc1 (centres unmarked) [Example 155, N-(4-{[2-(3-fluoropiperidin-1-yl)ethyl]carbamoyl}phenyl)-3-methyl-5-{[6-(trifluoromethyl)pyrazin-2-yl]amino}-1,2-thiazole-4-carboxamide] | 20 µM | > 20 µM |
| Cc1nsc(Nc2cnc3ccccc3n2)c1C(=O)Nc1ccc(C(=O)NCCN2CCCC(F)(F)C2)cc1 [Example 156, N-(4-{[2-(3,3-difluoropiperidin-1-yl)ethyl]carbamoyl}phenyl)-3-methyl-5-(quinoxalin-2-ylamino)-1,2-thiazole-4-carboxamide] | 4 µM | 19 µM and > 20 µM |
| Cc1nsc(Nc2cnc3ccccc3n2)c1C(=O)Nc1ccc(C(=O)N2CCN(CC(F)F)CC2)cc1 [Example 157, N-(4-{[4-(2,2-difluoroethyl)piperazin-1-yl]carbonyl}phenyl)-3-methyl-5-(quinoxalin-2-ylamino)-1,2-thiazole-4-carboxamide] | 0.9 µM | > 20 µM |
